Results reported in patent US7232828B2, “PPAR Ligands that do not cause fluid retention, edema or congestive heart failure” (Bethesda Pharmaceuticals, Inc., priority 2002, dated 2007).
Entries after “also recorded” stand apart in the source; their conditions may differ. Read-outs that look alike come from different tables or passages of the source.

What was measured:
[1] = tested on: mouse preadipocyte cell line (3T3-L1); assay: In vitro adipocyte differentiation (adipogenesis) activity; format: cell-based
Protocol: The following examples 2 and 3 provide a generic means to measure adipocyte differentation to determine if one has an insulin-sensitizing agent. […] The cells are then plated at 1.5×10^4/cm^2 in a 96-well tissue culture plate (view plate, 96 white, Packard) coated with type 1 collagen. […] The compounds added from a stock solution of dimethyl sulfoxide (DMSO). […] DMSO (0.1%) was added to the control cultures. The medium was replaced with maintenance medium (DMEM supplemented with 5% of FBS and 100 ng/mL of insulin), and the cells cultured for 2 more days. Activity of stimulation of adipogenesis was determined by exposure of the cells to [14-C]-acetic acid (7.4 kBq/mL), and uptake of [14-C]-acetic acid monitored after 1 h of incubation. The medium is discarded and the cells washed twice with phosphate-buffered saline. The cells are air-dried, and […] of scintillation cocktail (Microscint-20, Packard) added to the wells, and counted with a Packard TopCount microplate scintillation counter.

[2] = molecular target: T1, PPARγ (Homo sapiens, UniProt P37231); assay: PPARγ transactivation assay in transfected CV-1 cells (luciferase reporter); format: cell-based; details: for Activation of PPARγ (in words): at doses reasonably achievable at therapeutic doses
T1 construct: expressed in transfected cells; host or cells: CV-1 cells (CCL-70, ATCC)
T1 sequence (P37231 1-505): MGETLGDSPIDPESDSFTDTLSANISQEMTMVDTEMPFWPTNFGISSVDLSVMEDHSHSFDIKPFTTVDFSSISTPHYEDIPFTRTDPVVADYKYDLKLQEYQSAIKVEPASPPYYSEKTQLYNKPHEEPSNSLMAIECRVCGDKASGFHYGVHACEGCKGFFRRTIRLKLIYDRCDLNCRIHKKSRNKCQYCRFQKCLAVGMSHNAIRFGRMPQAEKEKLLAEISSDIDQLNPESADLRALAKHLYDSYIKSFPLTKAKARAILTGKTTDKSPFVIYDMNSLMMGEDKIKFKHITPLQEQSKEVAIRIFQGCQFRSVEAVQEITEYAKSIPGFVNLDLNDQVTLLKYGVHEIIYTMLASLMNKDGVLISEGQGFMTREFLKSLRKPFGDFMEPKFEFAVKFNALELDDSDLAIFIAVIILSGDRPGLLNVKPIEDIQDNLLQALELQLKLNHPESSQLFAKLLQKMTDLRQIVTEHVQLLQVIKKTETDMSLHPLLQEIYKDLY
Protocol: ARBs, or derivatives thereof, may be tested for their ability to activate the various PPAR isoforms by utilizing standard screening methods known to those skilled in the art including but not limited to cell based transactivation assays or cell free assays that test the ability of a compound to activate a PPAR construct by measuring the output of a reporter signal that reflects the extent of the PPAR activation. For example, the angiotensin receptor blocker telmisartan is added to the culture media of CV1 cells or other cells that can be transfected with a full length or partial PPAR cDNA sequence together with a reporter construct containing a PPAR response element or other appropriate response element fused to a reporter gene such as luciferase. […] Cell extracts were assayed for luciferase and β-galactosidase activity using Promega (Madison, Wis.) assay systems. All treatments were performed in triplicate, and normalized for β-galactosidase activity. Agonist concentrations yielding half maximal activation (EC50 values) were calculated using GraphPad Prism version 3.03 (GraphPad Software, Inc., San Diego, Calif.).

[3] = obese Zucker rat, oral, extremely high dose; cited from earlier work
[4] = tested on: human preadipocytes; details: high concentrations; cited from earlier work
[5] = patients with mild hypertension; cited from earlier work
[6] = format: in vivo, human
Source text: Insulin resistance is defined as a state in which circulating insulin levels in excess of the normal response to a glucose load are required to maintain the euglycemic state (Ford ES, et al. JAMA. (2002) 287:356-9). Insulin resistance, and the response of a patient with insulin resistance to therapy, may be quantified by assessing the homeostasis model assessment to insulin resistance (HOMA-IR) score, a reliable indicator of insulin resistance (Katsuki A, et al. Diabetes Care 2001;24:362-5). The estimate of insulin resistance by the homeostasis assessment model (HOMA)-IR score is calculated with the formula (Galvin P, et al. Diabet Med 1992;9:921-8): HOMA-IR=[fasting serum insulin (μU/mL)]×[fasting plasma glucose (mmol/L)/22.5]
A person with the metabolic syndrome was selected for therapy. […] The patient has the metabolic syndrome as defined by the National Cholesterol Education Program. The metabolic syndrome is associated with a 5-9 fold increase in the risk for developing type 2 diabetes and a 2-3 fold increase risk in cardiovascular mortality.

[7] = Clinical trial in a patient with osteoarthritis and inflammation (elevated CRP); format: in vivo, human; details: for Serum CRP level: baseline 7.9
Source text: A person with osteoarthritis and inflammation as judged by elevated C-reactive protein (CRP) levels was selected for therapy.

[8] = conventional oral dosing; cited from earlier work
[9] = Clinical trial in a patient with hypertension, hypertriglyceridemia and type 2 diabetes
[10] = 160 mg/day oral, after seven weeks

For CCCCc1ncc(/C=C(\Cc2cccs2)C(=O)O)n1Cc1ccc(C(=O)O)cc1 [eprosartan], the “Promotion of adipogenesis (in words)” value [1] was “did not promote adipogenesis” and the “Activation of PPARγ (in words)” value [2] was “do not activate PPARγ”.
In the case of CCCCC1=NC2(CCCC2)C(=O)N1Cc1ccc(-c2ccccc2-c2nnn[nH]2)cc1 [irbesartan], the “Activation of PPARγ / luciferase reporter gene activity (in words)” value [2] is listed as “can activate PPARγ; also recorded: found to activate PPARgamma”, the “PPARγ activation (fold activation)” value ([2]; tested at 10 μM, CV-1 cells) is listed as 2-3 fold and the Insulin sensitivity [3] is listed as “improved insulin sensitivity”. For the same compound, the Lipid levels [3] was “failed to improve lipid levels” and the Adipogenesis [4] was “can enhance adipogenesis”.
In the case of CCCCc1nc(Cl)c(CO)n1Cc1ccc(-c2ccccc2-c2nn[nH]n2)cc1 [losartan], the “Effect on glucose metabolism, insulin sensitivity, and serum concentrations” value [5] is given as “neutral effect”.
For CCCc1nc2c(C)cc(-c3nc4ccccc4n3C)cc2n1Cc1ccc(-c2ccccc2C(=O)O)cc1 [telmisartan], the “Diagnostic criteria of the metabolic syndrome (NCEP)” value ([6]; 80 mg/day oral, after two weeks) was “no longer meets the diagnostic criteria of the metabolic syndrome”, the Fasting glucose ([6]; 80 mg/day oral, after two weeks, baseline 118) was 105 mg/dL and the Fasting triglyceride level ([6]; 80 mg/day oral, after two weeks, baseline 129) was 115 mg/dL. The Blood pressure ([6]; 80 mg/day oral, after two weeks, baseline 160/79) was 130/69, the “Insulin resistance as determined by HOMA-IR score (in words)” value ([6]; patient with the metabolic syndrome) was “improved insulin resistance” and the “Serum CRP level” value ([7]; 80 mg/day oral, after 6 weeks) was 4.1 mg/L. The “Symptoms of inflammation and osteoarthritis” value ([7]; 80 mg/day oral, after 9 weeks) was “stabilized”, the “Serum CRP level” value ([7]; 80 mg/day oral, after 9 weeks) was 3.9 mg/L and the “Fluid retention, peripheral edema, pulmonary edema, congestive heart failure on clinical examination” value ([7]; osteoarthritis patient, 80 mg/day) was “no evidence of any increase in fluid retention, peripheral edema, pulmonary edema, or congestive heart failure”. The “Concentrations that can be achieved in plasma” value [8] was 1000 to 5000 nM, the “Promotion of adipogenesis (in words)” value [1] was “promote adipogenesis” and the “Activation of PPARγ / luciferase reporter gene activity (in words)” value [2] was “can activate PPARγ; also recorded: significant increase in reporter gene activity”. The EC50 [2] was 5.6 µM, the “PPARγ activation relative to maximum level of activity achieved by full agonists pioglitazone and rosiglitazone” value ([2]; CV-1 cells) was 25%-30% and the “PPARγ activation (fold)” value ([2]; tested at 1-5 μM, CV-1 cells, 24 hr) was 5-8 fold. For the same compound, the HDL cholesterol ([9]; 80 mg/day oral, after three weeks, baseline 48) was 50 mg/dL, the Blood pressure ([9]; 80 mg/day oral, after three weeks, baseline 160/90) was 143/91 and the Fasting glucose ([9]; 80 mg/day oral, after three weeks, baseline 183) was 188 mg/dL. For the same compound, the Triglyceride ([9]; 80 mg/day oral, after three weeks, baseline 264) was 281 mg/dL, the Blood pressure [9, 10] was 131/81 and the Glucose level [9, 10] was 145 mg/dL. The HDL cholesterol [9, 10] was 60 mg/dL, the Triglyceride level [9, 10] was 178 mg/dL and the “Blood HDL-cholesterol (in words)” value ([9]; patient with type 2 diabetes) was “elevated blood HDL-cholesterol”. For the same compound, the “Hyperglycemia (in words)” value ([9]; patient with type 2 diabetes) was “lowered the hyperglycemia”, the “Plasma triglycerides (in words)” value ([9]; patient with type 2 diabetes) was “lowers plasma triglycerides” and the “Fluid retention, peripheral edema, pulmonary edema, congestive heart failure on clinical examination” value ([9]; type 2 diabetes patient, 160 mg/day) was “no evidence of any increase in fluid retention, peripheral edema, pulmonary edema, or congestive heart failure”.
For CCCCC(=O)N(Cc1ccc(-c2ccccc2-c2nnn[nH]2)cc1)[C@H](C(=O)O)C(C)C [valsartan], the “Promotion of adipogenesis (in words)” value [1] was “did not promote adipogenesis” and the “Activation of PPARγ (in words)” value [2] was “do not activate PPARγ”.
